Experimental data as given in patent publication US20240190890A1, “MK2 INHIBITORS AND USES THEREOF” (Bristol-Myers Squibb Company, priority 2022, published 2024).

Each molecule was assayed against p38a activated, mitogen-activated protein kinase-activated protein kinase 2 (MAPKAP-K2 or MK2) enzyme (Homo sapiens (Human), UniProt P49137) (assay: MK2 Omnia continuous-read kinase assay for compound potency). Conditions: [MK-2]=0.4 nM, [ATP]=10 μM, [ST3-Sox]=10 μM; room temperature.
Format: biochemical
Description: Mitogen-Activated Protein Kinase-Activated Protein Kinase 2 Omnia® Assay for Compound Potency Assessment:
The protocol below describes a continuous-read kinase assay optimized to measure potency of compounds against p38a activated, mitogen-activated protein kinase-activated protein kinase 2 (MAPKAP-K2 or MK2) enzyme. Further details of this assay are described by Life Technologies, Carlsbad, CA on their website at the following URL: http://tools.lifetechnologies.com/content/sfs/manuals/omnia_kinase_assay_man.pdf. • [Reagent] used: • [MK-2]=0.4 nM, • [ATP]=10 μM and • [ST3-Sox]=10 μM (ATP^appKM=10 μM)
Briefly, 10× stock solutions of MK2 (PV3317, from Life Technologies), 1.13X ATP (AS001A), and Sox conjugated peptide substrate, S/T3-Sox, (KZN1031) were prepared in 1× kinase reaction buffer consisting of 20 mM Tris, pH 7.5, 5 mM MgCl2, 1 mM EGTA, 5 mM β-glycerophosphate, 5% glycerol (10× stock, KB001A) and 0.2 mM DTT (DS001A). Enzyme solution (5 μL) was added to each of DMSO ([…]) or serially diluted test compounds prepared in DMSO in a Corning (#3574) 384-well, white, non-binding surface microtiter plate (Corning, NY). Kinase reactions were started with the addition of 45 μL of the ATP-peptide substrate S/T3-Sox mix and monitored every 71 seconds for 120 minutes at λex360/λem485 in a Synergy H4 plate reader from BioTek (Winooski, VT) at room temperature.
Background signals from the no enzyme control wells were subtracted from all progress curves. The initial linear portions of the net progress curves were fit according to a linear equation to yield the slope and percentage of inhibition (% inhibition) at each compound concentration. The net progress curves obtained during the first two hours of reactions were also fit according to an ascending single-exponential equation (Eq. 1) to yield kobs values at each compound concentration. Plots of % Inhibition versus inhibitor concentrations were fit according to a dose-response equation (Eq. 2) to generate IC50 and Hill slope values while plots of kobs versus inhibitor concentration were fit according to Equation 3 (Eq. 3) to generate apparent kinact/K1 values using the GraphPad PRISM software (Version 6.00; GraphPad San Diego, CA).
where F is the fluorescence intensity from the plate reader, V0 is a constant reflecting the relationship between the instrument readout and product concentration, t is time, e is Euler's number, and kobs is the observed inactivation rate constant.
where % Inhibition is percentage of inhibition, IC50 is half maximal inhibitory concentration, [I] is the inhibitor concentration, and n is the Hill slope.
where kobs is the observed inactivation rate constant, kinact is the apparent inactivation rate constant, K1 is the apparent inhibition constant, and [I] is the inhibitor concentration. […] Potency results for the compounds tested are shown in Table 4 in the column entitled “MK2 IC50.”

p38a activated, mitogen-activated protein kinase-activated protein kinase 2 (MAPKAP-K2 or MK2) enzyme, sequence (P49137 whole entry): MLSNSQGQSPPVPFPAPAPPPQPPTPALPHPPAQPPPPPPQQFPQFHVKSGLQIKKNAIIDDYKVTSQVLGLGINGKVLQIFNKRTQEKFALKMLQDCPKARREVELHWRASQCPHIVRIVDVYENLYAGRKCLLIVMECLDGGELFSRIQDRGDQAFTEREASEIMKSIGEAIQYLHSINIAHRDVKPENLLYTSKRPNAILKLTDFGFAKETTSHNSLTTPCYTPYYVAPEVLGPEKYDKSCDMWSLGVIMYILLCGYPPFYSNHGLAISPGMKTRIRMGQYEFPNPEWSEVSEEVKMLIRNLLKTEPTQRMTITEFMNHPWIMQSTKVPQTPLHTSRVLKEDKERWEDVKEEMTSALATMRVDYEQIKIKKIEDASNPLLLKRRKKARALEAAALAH

Molecule | IC50 [nM]
C=Cc1ncnn1-c1ccc2c(ccc3sc4c(c32)NC[C@@H](C)NC4=O)n1 [Example I-214, (R)-10-methyl-3-(5-vinyl-1H-1,2,4-triazol-1-yl)-9,10,11,12-tetrahydro-8H-[1,4]diazepino[5′,6′:4,5]thieno[3,2-f]quinolin-8-one] | 2
COc1cnc(Cl)nc1-c1ccc2c(ccc3sc4c(c32)NC[C@@H](C)NC4=O)n1 [Example I-10, (R)-3-(2-chloro-5-methoxypyrimidin-4-yl)-10-methyl-9,10,11,12-tetrahydro-8H-[1,4]diazepino[5′,6′:4,5]thieno[3,2-f]quinolin-8-one] | 291
C=Cc1cc(-c2ccc3c(ccc4sc5c(c43)NC[C@@H](CF)NC5=O)n2)c(C)cn1 [Example I-254, (S)-10-(fluoromethyl)-3-(5-methyl-2-vinylpyridin-4-yl)-9,10,11,12-tetrahydro-8H-[1,4]diazepino[5′,6′:4,5]thieno[3,2-f]quinolin-8-one] | 27
C=Cc1ncc(COC2COC2)c(-c2ccc3c(ccc4sc5c(c43)NC[C@@H](C)NC5=O)n2)n1 [Example I-21, (R)-10-methyl-3-(5-((oxetan-3-yloxy)methyl)-2-vinylpyrimidin-4-yl)-9,10,11,12-tetrahydro-8H-[1,4]diazepino[5′,6′:4,5]thieno[3,2-f]quinolin-8-one] | 24
C=C(F)c1cccc(-c2ccc3c(ccc4sc5c(c43)NC[C@@H](C)NC5=O)n2)n1 [Example I-90, (R)-3-(6-(1-fluorovinyl)pyridin-2-yl)-10-methyl-9,10,11,12-tetrahydro-8H-[1,4]diazepino[5′,6′:4,5]thieno[3,2-f]quinolin-8-one] | 460
C[C@@H]1CNc2c(sc3ccc4nc(-c5cc(Cl)nc(C6=CCN(C)CC6)c5)ccc4c23)C(=O)N1 [Example I-100, (R)-3-(6-chloro-1′-methyl-1′,2′,3′,6′-tetrahydro-[2,4′-bipyridin]-4-yl)-10-methyl-9,10,11,12-tetrahydro-8H-[1,4]diazepino[5′,6′:4,5]thieno[3,2-f]quinolin-8-one] | 62
C#Cc1cc(-c2ccc3c(ccc4sc5c(c43)NC[C@@H](C)NC5=O)n2)cc(N2CCC(OC)CC2)n1 [Example I-159, (R)-3-(2-ethynyl-6-(4-methoxypiperidin-1-yl)pyridin-4-yl)-10-methyl-9,10,11,12-tetrahydro-8H-[1,4]diazepino[5′,6′:4,5]thieno[3,2-f]quinolin-8-one] | 189
C=Cc1cc(-c2ccc3c(ccc4sc5c(c43)NC[C@@H](C)NC5=O)n2)cc(CN2C[C@@H](C)O[C@@H](C)C2)n1 [Example I-185, (R)-3-(2-(((2S,6R)-2,6-dimethylmorpholino)methyl)-6-vinylpyridin-4-yl)-10-methyl-9,10,11,12-tetrahydro-8H-[1,4]diazepino[5′,6′:4,5]thieno[3,2-f]quinolin-8-one] | 7
C[C@@H]1CNc2c(sc3ccc4nc(-c5ccnc(Cl)c5)ccc4c23)C(=O)N1 [Example I-272, (R)-3-(2-chloropyridin-4-yl)-10-methyl-9,10,11,12-tetrahydro-8H-[1,4]diazepino[5′,6′:4,5]thieno[3,2-f]quinolin-8-one] | 68
C=Cc1noc(C)c1-c1ccc2c(ccc3sc4c(c32)NC[C@@H](C)NC4=O)n1 [Example I-227, (R)-10-methyl-3-(5-methyl-3-vinylisoxazol-4-yl)-9,10,11,12-tetrahydro-8H-[1,4]diazepino[5′,6′:4,5]thieno[3,2-f]quinolin-8-one] | 418
C#Cc1cc(-c2ccc3c(ccc4sc5c(c43)NC[C@@H](C)NC5=O)n2)c(OC)nn1 [Example I-91, (R)-3-(6-ethynyl-3-methoxypyridazin-4-yl)-10-methyl-9,10,11,12-tetrahydro-8H-[1,4]diazepino[5′,6′:4,5]thieno[3,2-f]quinolin-8-one] | 26
C#Cc1nc2c(c(-c3ccc4c(ccc5sc6c(c54)NC[C@@H](C)NC6=O)n3)n1)CN(C)CC2 [Example I-193, (R)-3-(2-ethynyl-6-methyl-5,6,7,8-tetrahydropyrido[4,3-d]pyrimidin-4-yl)-10-methyl-9,10,11,12-tetrahydro-8H-[1,4]diazepino[5′,6′:4,5]thieno[3,2-f]quinolin-8-one] | 526
C#Cc1ncc(OC)c(-c2ccc3c(ccc4sc5c(c43)NC[C@@H](C)NC5=O)n2)n1 [Example I-42, (R)-3-(2-ethynyl-5-methoxypyrimidin-4-yl)-10-methyl-9,10,11,12-tetrahydro-8H-[1,4]diazepino[5′,6′:4,5]thieno[3,2-f]quinolin-8-one] | 233
C/C=C\c1ncc(COCC)c(-c2ccc3c(ccc4sc5c(c43)NC[C@@H](C)NC5=O)n2)n1 [Example I-49, (R,Z)-3-(5-(ethoxymethyl)-2-(prop-1-en-1-yl)pyrimidin-4-yl)-10-methyl-9,10,11,12-tetrahydro-8H-[1,4]diazepino[5′,6′:4,5]thieno[3,2-f]quinolin-8-one] | 474
(R)-3-(2-chloro-5-(ethoxymethyl)pyrimidin-4-yl)-10-methyl-9,10,11,12-tetrahydro-8H-[1,4]diazepino[5′,6′:4,5]thieno[3,2-f]quinolin- [Example I-3] | 107
C=Cc1ncc(C)c(-c2ccc3c(ccc4sc5c(c43)NC[C@@H](C)NC5=O)n2)n1 [Example I-33, (R)-10-methyl-3-(5-methyl-2-vinylpyrimidin-4-yl)-9,10,11,12-tetrahydro-8H-[1,4]diazepino[5′,6′:4,5]thieno[3,2-f]quinolin-8-one] | 120
C[C@@H]1CNc2c(sc3ccc4nc(-c5cncc(Cl)c5)ccc4c23)C(=O)N1 [Example I-81, (R)-3-(5-chloropyridin-3-yl)-10-methyl-9,10,11,12-tetrahydro-8H-[1,4]diazepino[5′,6′:4,5]thieno[3,2-f]quinolin-8-one] | 90
C#Cc1cc(-c2ccc3c(ccc4sc5c(c43)NC[C@@H](C)NC5=O)n2)nc(C#CC(C)(C)N)n1 [Example I-67, (R)-3-(2-(3-amino-3-methylbut-1-yn-1-yl)-6-ethynylpyrimidin-4-yl)-10-methyl-9,10,11,12-tetrahydro-8H-[1,4]diazepino[5′,6′:4,5]thieno[3,2-f]quinolin-8-one] | 38
C#Cc1nccc(-c2ccc3c(ccc4sc5c(c43)NC[C@@H](C)NC5=O)n2)c1C [Example I-220, (R)-3-(2-ethynyl-3-methylpyridin-4-yl)-10-methyl-9,10,11,12-tetrahydro-8H-[1,4]diazepino[5′,6′:4,5]thieno[3,2-f]quinolin-8-one] | 177
C=Cc1cc(-c2ccc3c(ccc4sc5c(c43)NC[C@@H](C)NC5=O)n2)c(OC)nn1 [Example I-127, (R)-3-(3-methoxy-6-vinylpyridazin-4-yl)-10-methyl-9,10,11,12-tetrahydro-8H-[1,4]diazepino[5′,6′:4,5]thieno[3,2-f]quinolin-8-one] | 50
C=Cc1ncc(COC2(C)CCC2)c(-c2ccc3c(ccc4sc5c(c43)NC[C@@H](C)NC5=O)n2)n1 [Example I-26, (R)-10-methyl-3-(5-((1-methylcyclobutoxy)methyl)-2-vinylpyrimidin-4-yl)-9,10,11,12-tetrahydro-8H-[1,4]diazepino[5′,6′:4,5]thieno[3,2-f]quinolin-8-one] | 684
C#Cc1nccc(-c2ccc3c(ccc4sc5c(c43)NC[C@@H](C)NC5=O)n2)n1 [Example I-40, (R)-3-(2-ethynylpyrimidin-4-yl)-10-methyl-9,10,11,12-tetrahydro-8H-[1,4]diazepino[5′,6′:4,5]thieno[3,2-f]quinolin-8-one] | 25
C=Cc1nccc(-c2ccc3c(ccc4sc5c(c43)NC[C@@H](C)NC5=O)n2)c1C [Example I-219, (R)-10-methyl-3-(3-methyl-2-vinylpyridin-4-yl)-9,10,11,12-tetrahydro-8H-[1,4]diazepino[5′,6′:4,5]thieno[3,2-f]quinolin-8-one] | 142
C=Cc1cc(C(F)(F)F)n(-c2ccc3c(ccc4sc5c(c43)NC[C@@H](C)NC5=O)n2)n1 [Example I-257, (R)-10-methyl-3-(5-(trifluoromethyl)-3-vinyl-1H-pyrazol-1-yl)-9,10,11,12-tetrahydro-8H-[1,4]diazepino[5′,6′:4,5]thieno[3,2-f]quinolin-8-one] | 1000
